This note sets out measurements from PubChem BioAssay (NCI).

Among the test systems are MOLT-4 leukemia; RPMI-8226 leukemia; SF-295 CNS; HOP-92 NSCLC; 786-0 renal; PC-3 prostate; HT29 colon; OVCAR-4 ovarian; COLO 205 colon; SN12C renal.
Assay in all cases: DTP human tumour cell line panel, 48 h

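The compound was tested at five concentrations on cells cultured in 96-well plates, with a 48-hour exposure period. GI50 is the concentration that inhibits growth by half. Definition used: TGI = concentration required for complete inhibition of growth.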 Where only a bound is given, the exact number is not on record here.

Consider `O=C(c1ccccc1Cl)n1oc2ccccc2c1=O`, for which the total growth inhibition concentration (TGI) with MOLT-4 leukemia was 51.3 µM; in the test with RPMI-8226 leukemia, 68.8 µM; in the test with SF-295 CNS it was above 100 µM; in the test on HOP-92 NSCLC, above 100 µM; in the test on 786-0 renal, above 100 µM; with PC-3 prostate, above 100 µM. The TGI in the test with HT29 colon, in the test on OVCAR-4 ovarian, in the test on COLO 205 colon and in the test with SN12C renal was above 100 µM in each case.

On to `Oc1ccc2ccccc2c1N=Nc1cc(Cl)ccc1Cl`, for which the TGI in the test on MOLT-4 leukemia was above 50 µM; with RPMI-8226 leukemia, above 50 µM; in the test on SF-295 CNS, 28.6 µM; in the test with HOP-92 NSCLC it was above 50 µM; in the test with 786-0 renal it was 17 µM; in the test on PC-3 prostate, above 50 µM. In addition, the TGI is above 50 µM with HT29 colon, 28.8 µM with OVCAR-4 ovarian, above 50 µM in the test on COLO 205 colon and above 50 µM in the test on SN12C renal.

In the case of `O=C(NCCCl)Nc1cccnc1`, the TGI with MOLT-4 leukemia is 81.8 µM; with RPMI-8226 leukemia it was 86.6 µM; in the test with SF-295 CNS it was 94.5 µM; in the test on HOP-92 NSCLC, 53.3 µM; with 786-0 renal it was 39.9 µM; with PC-3 prostate it was above 100 µM. Moreover, the total growth inhibition concentration (TGI) worked out at 34.9 µM in the test on HT29 colon, 90.7 µM in the test on OVCAR-4 ovarian, 51.3 µM in the test on COLO 205 colon and 64.7 µM in the test on SN12C renal.

`C#Cc1cccc(Nc2ncnc3ccc(OCCCCNCCS(C)(=O)=O)cc23)c1`: the GI50 is 7.97 µM in the test on MOLT-4 leukemia; 4.59 µM with RPMI-8226 leukemia; 8.84 µM with SF-295 CNS; 1.68 µM with HOP-92 NSCLC; 7.54 µM in the test on 786-0 renal; 9.55 µM in the test on PC-3 prostate. Further, the GI50 in the test with HT29 colon is 5.44 µM; in the test with OVCAR-4 ovarian, 9.55 µM; in the test with COLO 205 colon it was 5.58 µM; with SN12C renal, 5.89 µM. The total growth inhibition concentration (TGI) is 21.4 µM in the test with MOLT-4 leukemia; 15.3 µM with RPMI-8226 leukemia; above 25 µM with SF-295 CNS; 14.4 µM in the test on HOP-92 NSCLC; above 25 µM in the test on 786-0 renal; above 25 µM in the test on PC-3 prostate. In addition, the concentration for total growth inhibition (TGI) in the test on HT29 colon is 12.5 µM; in the test on OVCAR-4 ovarian, above 25 µM; in the test with COLO 205 colon, 12.3 µM; in the test with SN12C renal it was above 25 µM.

`CC1=C(C)C(=O)O[C@@H]([C@](C)(O)[C@]2(O)CC[C@@]3(O)[C@@H]4C[C@H](O)[C@]5(O)[C@@H](O)C=CC(=O)[C@]5(C)[C@H]4CC[C@]23C)C1`: the TGI in the test with MOLT-4 leukemia, in the test with RPMI-8226 leukemia, in the test with SF-295 CNS, in the test with HOP-92 NSCLC, in the test with 786-0 renal and with PC-3 prostate was above 100 µM in each case. Besides, the TGI with HT29 colon, in the test with OVCAR-4 ovarian, in the test on COLO 205 colon and with SN12C renal was above 100 µM throughout.

`COc1ccc(NC2=C(I)C(=O)c3ncccc3C2=O)cc1`: the GI50 in the test on MOLT-4 leukemia is 2.06 µM; with RPMI-8226 leukemia it was 1.17 µM; with SF-295 CNS, 1.67 µM; in the test with HOP-92 NSCLC it was 1.48 µM; in the test on 786-0 renal it was 1.85 µM; with PC-3 prostate it was 0.972 µM. The GI50 with HT29 colon is 3.07 µM; with OVCAR-4 ovarian, 1.12 µM; in the test on COLO 205 colon it was 1.68 µM; in the test with SN12C renal, 1.05 µM. Also, the TGI amounted to 5.79 µM in the test on MOLT-4 leukemia; 3.85 µM with RPMI-8226 leukemia; 3.16 µM in the test on SF-295 CNS; 3.78 µM with HOP-92 NSCLC; 4.74 µM with 786-0 renal; 7.99 µM in the test on PC-3 prostate. The TGI with HT29 colon stood at 10.2 µM; with OVCAR-4 ovarian, 2.35 µM; with COLO 205 colon it was 3.47 µM; with SN12C renal, 2.27 µM.

For `O=C(c1ccc(C(F)(F)F)c(Cl)c1)N(Cc1ccc(Cl)cc1)c1ccc(-c2cc(C(F)(F)F)[nH]n2)c(O)c1`, the GI50 with MOLT-4 leukemia was 1.32 µM; with RPMI-8226 leukemia, 0.659 µM; in the test on SF-295 CNS it was 1.08 µM; in the test with HOP-92 NSCLC, 0.629 µM; in the test with 786-0 renal it was 0.895 µM; in the test on PC-3 prostate, 0.897 µM. Also, the GI50 in the test on HT29 colon was 1.25 µM; with OVCAR-4 ovarian, 1.08 µM; in the test with COLO 205 colon, 0.865 µM; in the test with SN12C renal, 0.886 µM. For the same compound, the concentration for total growth inhibition (TGI) was 5.09 µM in the test on MOLT-4 leukemia; 2.23 µM in the test with RPMI-8226 leukemia; 2.87 µM with SF-295 CNS; 2.14 µM with HOP-92 NSCLC; 1.7 µM with 786-0 renal; 2.91 µM with PC-3 prostate. Further, the TGI with HT29 colon was determined as 5.55 µM; with OVCAR-4 ovarian it was 4.87 µM; in the test with COLO 205 colon it was 1.64 µM; with SN12C renal, 2.04 µM.

On to `O=c1c2ccccc2c(/C=N\NC2=NCCN2)c2oc3ccccc3n12`, for which the GI50 with MOLT-4 leukemia is 23.8 µM; in the test with RPMI-8226 leukemia it was 28.6 µM; in the test with SF-295 CNS, 13.5 µM; in the test on HOP-92 NSCLC, 22.5 µM; in the test with 786-0 renal, 33.9 µM; in the test with PC-3 prostate it was 23 µM. Further, the GI50 was 20.7 µM with HT29 colon, 23.7 µM in the test on OVCAR-4 ovarian, 18.8 µM in the test on COLO 205 colon and 11.2 µM with SN12C renal. Moreover, the concentration for total growth inhibition (TGI) in the test on MOLT-4 leukemia was above 100 µM; in the test with RPMI-8226 leukemia, above 100 µM; with SF-295 CNS it was 27.8 µM; in the test on HOP-92 NSCLC it was 51.1 µM; in the test on 786-0 renal, above 100 µM; in the test on PC-3 prostate, 45.6 µM. Besides, the total growth inhibition concentration (TGI) with HT29 colon was above 100 µM; in the test with OVCAR-4 ovarian, 65.7 µM; with COLO 205 colon, 38.7 µM; with SN12C renal, 27.7 µM.

As for `CCOC(=O)C1=C(C)NC(=O)NC1CN1C(=O)c2ccccc2C1=O` (stereo not given), the GI50 in the test on MOLT-4 leukemia, with RPMI-8226 leukemia, in the test with SF-295 CNS, in the test on HOP-92 NSCLC, in the test on 786-0 renal and in the test on PC-3 prostate was above 100 µM throughout. Further, the GI50 in the test on HT29 colon, with OVCAR-4 ovarian, in the test with COLO 205 colon and in the test with SN12C renal was above 100 µM throughout. Besides, the TGI with MOLT-4 leukemia, in the test on RPMI-8226 leukemia, in the test with SF-295 CNS, in the test on HOP-92 NSCLC, with 786-0 renal and in the test with PC-3 prostate was above 100 µM throughout. Besides, the TGI in the test on HT29 colon, in the test with OVCAR-4 ovarian, in the test on COLO 205 colon and in the test with SN12C renal was above 100 µM throughout.

Usually TGI stands for the concentration giving total growth inhibition. Read a low TGI as greater sensitivity of the cells. By GI50 is commonly meant the concentration at which growth is held to half of that of the control.
